Literature values as cited in patent publication US20240148758A1, “CONTROLLED RELEASE FORMULATIONS OF HIGHLY LIPOPHILIC PHYSIOLOGICALLY ACTIVE SUBSTANCES” (ADD Advanced Drug Delivery Technologies Ltd., priority 2019, published 2024).

Settings: decimal logarithm of the n-octanol/water partition coefficient

## C=C(C)[C@@H]1CCC(C)=C[C@H]1c1c(O)cc(CCCCC)cc1O [Canapure PH, 2-[1R-3-methyl-6R-(1-methylethenyl)-2-cyclohexen-1-yl]-5-pentyl-1,3-benzenediol]
  log P: about 6.1
